US8034388B2, “Anthocyanin-rich compositions and methods for inhibiting cancer cell growth” (The University of Maryland, priority 2003, dated 2011)

Columns and labels:
[1] = system: HCT-15 cells derived from human colon carcinoma; conditions: Kamei and coworkers (1995); cited from earlier work
HT-29 colon cancer cells = assay: Cell proliferation of HT-29 cells (hemacytometer count, Trypan blue exclusion); type: cell-based, human; conditions: HT-29 carcinoma cells, pure anthocyanin
Method: Cell Culture—Human HT-29 colon cancer cells (ATCC, HTB 38) were grown in McCoy's 5A medium (BioWhitaker Inc., Walkersville, Md.), and normal colon epithelial cells, NCM460 (INCELL Corp. LLC, Austin, Tex.) were grown in 25% conditioned M3:10 medium (INCELL Corp., LLC). Media were supplemented with 10% fetal bovine serum (FBS) and 1× antibiotic-antimycotic (Invitrogen Corporation, Carlsbad, Calif.), and cells were maintained in a humidified atmosphere of 95% air/5% CO2 at 37° C. […] Cell Proliferation—Freshly trypsinized cells were seeded in 25-cm^2 (1×10^6 cells) or 75-cm^2 (2×10^6 cells) flasks in duplicate. The cells were grown for 24 h under normal growth conditions prior to treatment with chokeberry ARE. Freshly prepared ARE was added in concentrations ranging from 10 to 200 μg monomeric anthocyanin/ml medium. A vehicle control contained acidified water and was added at the same volume as ARE added to treated cells. […] Prior to exposure to ARE for 24 h, 48 h or 72 h treatments, the medium was replaced with fresh medium (10% FBS) containing either vehicle control (acidified water) or ARE. For each time point, the cells were trypsinized and centrifuged at 400 g for 10 min at room temperature. Aliquots of cells were counted using a hemacytometer and viability measured using Trypan blue dye exclusion.

Structure (SMILES) | dose for 50% cell growth suppression [1] [µg/mL] | cancerous colonic cell growth (visual observations of cell growth and viability) (HT-29 colon cancer cells)
Oc1ccc(-c2[o+]c3cc(O)cc(O)c3cc2O)cc1 [pelargonidin, Pelargonidin] | 5 | –
Oc1cc(O)c2cc(O)c(-c3cc(O)c(O)c(O)c3)[o+]c2c1 [delphinidin, Delphinidin] | 0.5 | –
OC[C@H]1O[C@@H](Oc2cc3c(O)cc(O)cc3[o+]c2-c2ccc(O)c(O)c2)[C@H](O)[C@@H](O)[C@H]1O [cyanidin-3-galactoside] | – | notably inhibited
Oc1cc(O)c2cc(O)c(-c3ccc(O)c(O)c3)[o+]c2c1 [cyanidin, Cyanidin] | 2 | –
